Experimental data from US20230348453A1, “HALOGENATED-HETEROARYL AND OTHER HETEROCYCLIC KINASE INHIBITORS, AND USES THEREOF” (iOmx Therapeutics AG, priority 2020, published 2023).

Assays:
[1] = system: M579-A2-luc melanoma tumour cells; assay: Luciferase-based TNF killing assay; assay type: cell-based, human; details: TNF 10 ng/mL; inhibitor between about 10 and 100 nM
Procedure: PANC1-luc is an HLA-A2.1+ luciferase-expressing pancreatic adenocarcinoma (PDAC) tumour cell line, and M579-A2-luc is an HLA-A2.1+ luciferase-expressing melanoma tumour cell line.
After lysis, luciferase assay buffer is added and immediately the luciferase intensity was measured by using the TECAN-Spark microplate reader.

[2] = system: HCT116 cells; assay: TNF-sensitised cell viability assay (CellTiter-Glo); details: Homo sapiens, HCT-116, read-out: HCT116 IC50 (at 10 ng/ml rHuTNF)
[3] = molecular target: HCK (Homo sapiens (Human), UniProt P08631); assay type: biochemical; details: Kinase Profiler
[4] = system: NFKB activity in PANC-1 cells; assay: TNF-induced NFKB activity (NFKB-dependent luciferase reporter); details: 10 ng/ml rHuTNF, PANC-1 reporter cells
[5] = in vivo, po, 30 mg/kg
[6] = Metabolite profile in hepatocytes / in vivo
Text: Metabolites are identified using high-resolution mass spectrometry.

[7] = in vitro; details: human, microsomes
[8] = system: SIK3 WT and KO MC38 clones; assay: TNF-mediated killing of SIK3 wildtype vs SIK3 knockout MC38 clones (CTG); assay type: cell-based, mouse; details: sub-optimal TNF (<10 ng/ml), 72 h
Procedure: The assay was performed as follows: MC38 SIK3 KO clones were generated using CRISPR. Cells were transfected with RNP complexes (Cas9+gRNA) containing gRNAS targeting SIK3 or non-targeting sequences (control). […] Subsequently, single cell clones were generated by limiting dilution. CRISPR-derived mutations in single clones were detected by next-generation sequencing and analysed using CRISPResso. Knockout and wildtype clones were selected and plated overnight. […] Cells treated with different concentrations of inhibitor but without TNF served as no TNF control. Cell viability was measured by CTG assay.

[9] = system: MC38 colorectal carcinoma tumours; assay: MC38 syngeneic mouse tumour model (Example 8.1)
[10] = in vitro; details: mouse, microsomes
[11] = system: NFKB activity in MC38 cells; assay: TNF-induced NFKB activity (NFKB-dependent luciferase reporter); details: 10 ng/ml rMuTNF
[12] = molecular target: T1, SIK3 (Homo sapiens (Human), UniProt Q9Y2K2); assay: SIK3 kinase inhibition (IC50)
[13] = Mouse hepatocyte stability; assay type: in vitro ADME; details: hepatocytes
[14] = female, C57BL/6, mouse, in vivo, 7 days
[15] = in vivo; details: male, CD1, mouse, po, 30 mg/kg
[16] = Human hepatocyte stability; assay type: in vitro ADME
[17] = Screening PK in mice after 30 mg/kg po; details: for concentration at 6 h: mice, 30 mg/kg po
[18] = MDCK wild type permeability/efflux; details: dog
[19] = molecular target: CSF1R (Homo sapiens (Human), UniProt P07333); assay type: biochemical; details: Kinase Profiler
[20] = Human plasma-protein binding
[21] = Murine plasma protein binding
[22] = molecular target: T1, SIK3; details: fold of the value of compound C7 (C7 = 1×)
[23] = system: HDAC4 phosphorylation in PANC-1 cells; assay: HDAC4 phosphorylation (Meso Scale Discovery assay); details: 10 ng/mL rHuTNF, 3 h
[24] = molecular target: SIK2 (Homo sapiens (Human), UniProt Q9H0K1); assay: SIK2 kinase inhibition (IC50); details: read-out: Kinase: IC50 (nM) SIK2
[25] = molecular target: MDR1 pump (P-gp), MDCK-MDR1 cells (Homo sapiens (Human), UniProt P08183); assay: MDR1-MDCK effective efflux assay; details: Table 5.1B
[26] = molecular target: MDR1 (P-gp) (Homo sapiens (Human), UniProt P08183); assay: MDR1-MDCK effective efflux assay; details: dog; for efflux ratio: Table 5.1B
[27] = system: MC38 murine tumour cell line; assay: TNF-sensitised cell viability assay (CellTiter-Glo); details: Mus musculus
[28] = system: human breast skin explants; assay: Human skin explant eumelanisation
[29] = total plasma concentration at 30 mg/kg p.o dose, fold of C7 (C7 = 1×)

Chain of CSF1R (P07333 20-972 limits assumed): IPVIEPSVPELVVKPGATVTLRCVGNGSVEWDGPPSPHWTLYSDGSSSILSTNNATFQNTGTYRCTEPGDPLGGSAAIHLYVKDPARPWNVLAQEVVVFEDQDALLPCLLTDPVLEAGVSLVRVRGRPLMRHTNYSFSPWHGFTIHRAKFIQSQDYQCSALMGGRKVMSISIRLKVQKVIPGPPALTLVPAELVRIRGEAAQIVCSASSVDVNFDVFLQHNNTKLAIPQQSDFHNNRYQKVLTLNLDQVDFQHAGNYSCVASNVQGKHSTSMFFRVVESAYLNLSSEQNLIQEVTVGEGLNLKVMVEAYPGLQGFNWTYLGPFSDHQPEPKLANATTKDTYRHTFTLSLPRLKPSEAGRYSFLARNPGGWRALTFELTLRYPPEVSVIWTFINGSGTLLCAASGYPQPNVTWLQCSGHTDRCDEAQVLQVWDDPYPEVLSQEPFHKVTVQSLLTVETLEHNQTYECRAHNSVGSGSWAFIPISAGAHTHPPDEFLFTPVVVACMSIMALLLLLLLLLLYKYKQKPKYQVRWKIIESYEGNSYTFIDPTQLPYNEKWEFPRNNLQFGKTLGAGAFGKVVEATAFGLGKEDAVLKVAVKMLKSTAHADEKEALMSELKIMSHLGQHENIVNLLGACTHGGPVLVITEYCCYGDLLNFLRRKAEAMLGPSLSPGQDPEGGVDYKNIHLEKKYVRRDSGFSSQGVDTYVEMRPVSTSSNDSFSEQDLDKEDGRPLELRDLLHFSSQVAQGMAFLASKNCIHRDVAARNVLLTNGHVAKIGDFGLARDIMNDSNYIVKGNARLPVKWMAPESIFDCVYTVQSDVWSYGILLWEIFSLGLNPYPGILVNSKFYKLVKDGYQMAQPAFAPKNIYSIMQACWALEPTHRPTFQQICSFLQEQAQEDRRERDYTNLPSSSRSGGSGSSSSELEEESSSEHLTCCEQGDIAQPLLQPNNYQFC

With `CCOc1cccc(Cl)c1NC(=O)c1cnc(Nc2cc(N3CCN(CCO)CC3)nc(C)n2)s1` [Compound B8, N-(2-chloro-6-ethoxyphenyl)-2-((6-(4-(2-hydroxyethyl)piperazin-1-yl)-2-methylpyrimidin-4-yl)amino)thiazole-5-carboxamide] the “cytotoxicity in the presence of TNF compared to inhibitor alone” value (“cytotoxicity … compared to inhibitor alone” for short) [1] was “fails to exhibit cytotoxicity”.
For `Cc1nc(Nc2ncc(C(=O)Nc3c(CF)csc3Cl)s2)cc(N2CCN(C)C(C)C2)n1` (racemic) [Compound E10, N-(2-chloro-4-(fluoromethyl)thiophen-3-yl)-2-((6-(3,4-dimethylpiperazin-1-yl)-2-methylpyrimidin-4-yl)amino)thiazole-5-carboxamide], the IC50 [2] was less than 100 nM, the HCK residual activity [3] was “less than 1%” and the “Inhibition of NFKB activity (PANC-1)” value [4] was “++”. For the same molecule, the “% AUCextrap, Free” value ([5]; male, CD1, mouse) was 4.05%, the “% AUCextrap, Total” value ([5]; male, CD1, mouse) was 4.05% and the “AUCinf (nM*h), Free” value ([5]; male, CD1, mouse) was 128.06 nM·h. The “AUClast (nM*h), Free” value ([5]; male, CD1, mouse) was 122.87 nM·h, the “Rsq, Free” value ([5]; mouse) was 0.81 and the “Rsq, Total” value ([5]; mouse) was 0.81. For the same molecule, the quinone-imine reactive metabolite [6] was “not observed”, the half-life [7] was 12 min and the microsomal CLint [7] was 120 µL/min/mg. For the same molecule, the “TNF-mediated killing in SIK3 WT vs KO MC38 clones” value [8] was “induced TNF-mediated killing only in SIK3 WT clones”, the TGI ([9]; MC38, dose not repeated) was 46% and the “Body weight increase (%)” value ([9]; MC38, 30 mg/Kg, BID po) was 19.8%. For the same molecule, the Non-treatment related death ([9]; MC38, 30 mg/Kg, BID po) was 0/16, the “Tumour growth inhibition (%)” value ([9]; MC38, 30 mg/Kg, BID po) was 46% and the half-life [10] was 14 min. For the same molecule, the microsomal CLint [10] was 99 µL/min/mg, the “Inhibition of NFKB activity (MC38)” value [11] was “++” and the IC50 [12] was 20 to 50 nM. For the same molecule, the half-life [13] was 78 min, the microsomal CLint ([13]; read-out: Mouse hepatocyte stability, Intrinsic clearance) was 18 µL/min/mg and the “DLT@BID dosing” value [14] was “n.d. @30 mg/kg”. The “DLT@QD dosing” value [14] was “n.d. @30 mg/kg”, the “HRD in vivo @BID” value [14] was 30 mg/kg and the “HRD in vivo @QD” value [14] was 30 mg/kg. For the same molecule, the AUC(0-inf) [15] was 6.17 µM·h, the AUC(0-t) [15] was 5.92 µM·h and the Cmax [15] was 2040 ng/mL. It also gave an MRT last [15] of 246 min, a Tmax [15] of 15 min and a half-life [15] of 261 min. The “Human hepatocyte stability, Half-life” value [16] was 21 min, the half-life ([16]; human, hepatocytes, read-out: Human hepatocyte stability, Half-life) was 21 to 30 min and the microsomal CLint ([16]; human, hepatocytes, read-out: Human hepatocyte stability, Intrinsic clearance) was 67 µL/min/mg. For the same molecule, the Cmax at 2 h ([17]; mouse, plasma, po, 30 mg/kg) was 374 ng/mL, the concentration at 6 h ([17]; mouse, plasma, po, 30 mg/kg, Free plasma concentration after 6 h (nM)) was 3.3 nM and the concentration at 6 h ([17]; mouse, plasma, po, 30 mg/kg, Plasma concentration after 6 h (nM)) was 157 nM. For the same molecule, the “AUC0-last (nM*h), relative to C7” value [17, 29] was 2×, the “C max (ng/ml), relative to C7” value [17, 29] was 1.7× and the “MRT0-last (h), relative to C7” value [17, 29] was 2.8×. For the same molecule, the “t1/2 (h), relative to C7” value [17, 29] was 14.5×, the Papp [18] was 10 ×10⁻⁶ cm/s and the efflux ratio [18] was 1.6. The CSF1R residual activity [19] was “less than 1%”, the “Human plasma-protein binding, Percentage unbound (%)” value ([20]; Table 5.1A) was 1% and the recovery at 4 h ([20]; human, plasma) was 74%. The “Murine plasma protein binding, Percentage unbound (%)” value ([21]; Table 5.1A) was 1%, the recovery at 4 h ([21]; mouse, plasma) was 101% and the “SIK3 IC50 (nM), relative to C7” value [22] was 0.7×. For the same molecule, the “Inhibition of HDAC4 phosphorylation” value [23] was “++”, the IC50 [24] was less than 20 nM and the “MDCK-MDR1 cells, Mean Efflux Ratio (MDR1)” value [25] was 31. The Papp ([26]; MDCK-MDR1) was 4 ×10⁻⁶ cm/s, the efflux ratio ([26]; MDCK-MDR1, MDCK-MDR1 cells, Mean Efflux Ratio (MDR1)) was 20 to 30 and the efflux ratio ([26]; MDCK-MDR1, P-gP driven efflux ratio (MDR1/wt)) was 19. For the same molecule, the IC50 ([27]; MC-38, read-out: MC38 IC50 (at 100 ng/mL rMuTNF)) was less than 100 nM and the EC50 ([27]; MC-38, read-out: mean EC50 of sensitising MC38 tumour cells to TNF-mediated killing) was less than 100 nM.
In the case of `COc1c(F)cccc1NC(=O)c1cnc(Nc2cc(N3CCN(CCO)CC3)nc(C)n2)s1` [Compound B4, N-(3-fluoro-2-methoxyphenyl)-2-((6-(4-(2-hydroxyethyl)piperazin-1-yl)-2-methylpyrimidin-4-yl)amino)thiazole-5-carboxamide], the “cytotoxicity … compared to inhibitor alone” value [1] is reported as “fails to exhibit cytotoxicity”.
For `Cc1nc(Nc2ncc(C(=O)Nc3c(Cl)cccc3Br)s2)cc(N2CCN(CCO)CC2)n1` [Compound B1, N-(2-bromo-6-chlorophenyl)-2-((6-(4-(2-hydroxyethyl)piperazin-1-yl)-2-methylpyrimidin-4-yl)amino)thiazole-5-carboxamide], the “cytotoxicity … compared to inhibitor alone” value [1] was “increased cytotoxicity”.
In the case of `COc1ccc(N(C(=O)Nc2c(C)cccc2C)c2cc(Nc3ccc(N4CCN(C)CC4)cc3)ncn2)c(OC)c1` [HG 9-91-01], the “gross pigmentation of human skin explants, passive topical application” value ([28]; 8 days (1×/day)) is reported as “no significant gross pigmentation”, the “melanin content (Fontana-Masson staining), passive application” value ([28]; compared to control) is reported as “marginally increased melanin” and the “gross pigmentation of human skin explants, mechanical application” value ([28]; rubbing via an applicator) is reported as “induces significant gross pigmentation”.
